Laboratory results as given in patent US4665053A, “Peptide derivatives, the preparation and their use as elastase inhibitors” (Centre National de la Recherche Scientifique, priority 1983, dated 1987).
Residues, ends and D or L forms follow the SMILES beside them. *: point of attachment. Oleoyl = CCCCCCCC/C=C\CCCCCCCC(=O)*

Assays:
[1] = target: T1, pancreatic elastase (Sus scrofa, UniProt P00772); experiment: Resistance of pretreated radiolabelled elastin to hydrolysis by pancreatic elastase; format: biochemical, hog; conditions: elastin pretreated 24 hours, washed, then 0.05 mg pancreatic elastase; molar ratio inhibitor/enzyme 5 × 10^4
Experimental: (1c) Elastin pretreated with these substances is partially resistant to enzymatic hydrolysis by the elastases.
For these tests, elastin has been radiolabelled with tritium borohydride NaBH4, specific activity: 1.7×10^5 cmp/mg.
1 mg of elastin is treated with […] of a solution of different compounds in 1 ml of Tris HCl buffer, pH-8.0, for 24 hours; the mixture is centrifuged and the insoluble elastin washed with 1 ml of buffer. 0.05 mg of pancreatic elastase is then added and hydrolysis of the polymer is quantified by measurement of the radioactive peptides liberated during the course of the hydrolysis.

[2] = target: T2, human leucocytic elastase (Homo sapiens, UniProt P08246); experiment: Inhibition of purified leucocytic elastase, hydrolysis of synthetic paranitroanilide substrates; format: biochemical; conditions: for Percent inhibition: Leucocytic elastase 10×10^-9 M, molar ratio inhibitor/enzyme 4 × 10^4, 15 minutes pre-incubation; for elastase inhibitor (conclusion in words): conclusion on elastases in general
T2 construct: purified human leucocytic elastase starting from the spleen; from tissue; host or cells: human spleen
T2 sequence (P08246 30-267): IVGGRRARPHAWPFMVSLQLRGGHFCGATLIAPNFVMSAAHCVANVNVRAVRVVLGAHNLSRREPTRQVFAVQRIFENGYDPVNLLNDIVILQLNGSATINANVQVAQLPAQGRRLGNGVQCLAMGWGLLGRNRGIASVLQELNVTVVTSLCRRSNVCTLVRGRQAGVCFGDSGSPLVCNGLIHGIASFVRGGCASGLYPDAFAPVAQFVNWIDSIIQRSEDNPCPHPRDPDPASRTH
Experimental: (§1) Purified elastases employed: hog pancreatic elastase (120 U/mg) and purified human leucocytic elastase starting from the spleen.
(§2) Molar concentration of these enzymes: pancreatic elastase: 4×10^-9 M; leucocytic elastase: 10×10^-9 M.
(§3) The enzymatic activity of these elastases is followed by hydrolysis of specific synthetic substrates: N-succinoyltrialanine paranitroanilide, acetyl-bis alanylprolyl-alanine paranitroanilide at a final concentration of 1.25 mM in a Tris/HCl buffer, pH=8-8.6. The variation in optical density at 410 nm is followed directly in a Beckman type Acta C III spectrophotometer.
(§4) In the inhibition tests, the oleoyl compounds are pre-incubated 15 minutes with the elastases before determing the residual enzymatic activities.

[3] = target: T3, hog pancreatic elastase (Sus scrofa, UniProt P00772); experiment: Inhibition of purified pancreatic elastase, hydrolysis of synthetic paranitroanilide substrates; format: biochemical; conditions: Pancreatic elastase 4×10^-9 M; molar ratio inhibitor/enzyme 4 × 10^4; 15 minutes pre-incubation
T3 construct: Purified elastases employed: hog pancreatic elastase (120 U/mg); host or cells: pancreas, by the enzyme's name only
Experimental: as §1, §2, §3, §4

[4] = target: T1, pancreatic elastase; experiment: In vivo inhibition of degradation of cutaneous elastic fibers induced by intradermal injection of pancreatic elastase; set-up: host or cells: exogenous enzyme injected into rabbit skin; conditions: rabbit skin, intradermal pretreatment, histology and quantitative morphometry
Experimental: 2. In vivo study of the inhibiting action of Oleoyl-bis-alanyl-proline-alanine towards the enzymatic degradation of cutaneous elastic fibers induced by intradermal injection of pancreatic elastase
For these tests, young Garenne rabbits (1 month) have been employed. 3 types of intradermal injections (volume: 0.25 ml; solvent: phosphate buffer, pH 7.0) have been performed on the backs of the test animals.
1. Control injection: injection of 0.25 ml of phosphate buffer only;
2. Injection of hog pancreatic elastase: 10 micrograms (1.2 units […]) in 0.25 ml of buffer; and
3. Injections of 50-250 micrograms of Ol--(Ala)2 --Pro--Ala (8×10^-8 to 3×10^-7 mole) in 0.25 ml of buffer followed by an injection at the same site of 10 micrograms (1.2 units, 4×10^-10 mole) of pancreatic elastase in 0.25 ml of buffer.
Different samples of rabbit skin are then treated in histology in order to permit visualization of elastic fibers.
The histologic observation and studies of quantitative morphometry reveal: […]

T1 sequence (P00772 27-266): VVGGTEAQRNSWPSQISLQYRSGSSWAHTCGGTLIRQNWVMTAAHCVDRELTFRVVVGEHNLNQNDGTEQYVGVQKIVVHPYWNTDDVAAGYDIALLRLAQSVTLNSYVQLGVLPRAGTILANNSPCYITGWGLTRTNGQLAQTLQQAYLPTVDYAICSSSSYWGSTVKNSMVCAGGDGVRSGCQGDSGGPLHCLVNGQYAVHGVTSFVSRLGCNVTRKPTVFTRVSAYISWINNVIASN
T3 sequence (P00772 27-266): as above

| SMILES | Percent inhibition relative to samples without pretreatment [1] [%] | Percent inhibition [2] [%] | elastase inhibitor (conclusion in words) [2] | Percent inhibition [3] [%] | elastic tissue preserved ([4]; molar ratio inhibitor/enzyme 2×10^2) | elastic tissue preserved ([4]; molar ratio inhibitor/enzyme 10^3) |
| --- | --- | --- | --- | --- | --- | --- |
| C[C@H](N)C(=O)N[C@@H](C)C(=O)N1CCC[C@H]1C(=O)N[C@@H](C)C(=O)O [H(Ala)2 Pro Alanine, L-Alanyl-L-Alanyl-L-Proyl-Alanine, reference compound] (H-AAPA-OH) | 0 |  |  |  |  |  |
| CCCCCCCC/C=C\CCCCCCCC(=O)N[C@@H](C)C(=O)N[C@@H](C)C(=O)N1CCC[C@H]1C(=O)N[C@@H](C)C=O [Ol(Ala)2 Pro Alaninal, Oleoyl-L-Alanyl-L-Alanyl-L-Prolyl-L-Alaninal] (Oleoyl-AAPA-aldehyde) | 98 | 90 | act as elastase inhibitors | 85 |  |  |
| CC(C)[C@H](NC(=O)[C@@H]1CCCN1C(=O)[C@H](C)NC(=O)[C@H](C)N)C(=O)O [H(Ala)2 Pro Valine, L-Alanyl-L-Alanyl-L-Prolyl-L-Valine, reference compound] (H-AAPV-OH) | 0 |  |  |  |  |  |
| CCCCCCCC/C=C\CCCCCCCC(=O)N[C@@H](C)C(=O)N[C@@H](C)C(=O)N1CCC[C@H]1C(=O)N[C@@H](C)C(=O)O [Ol(Ala)2 Pro Alanine, Oleoyl-L-Alanyl-L-Alanyl-L-Prolyl-L-Alanine] (Oleoyl-AAPA-OH) |  | 5 | act as elastase inhibitors | 15 | 40-60% | 60-80% |
| CCCCCCCC/C=C\CCCCCCCC(=O)N[C@@H](C)C(=O)N[C@@H](C)C(=O)N1CCC[C@H]1C(=O)N[C@H](C(=O)O)C(C)C [Ol(Ala)2 Pro Valine, Oleoyl-L-Alanyl-L-Alanyl-L-Prolyl-L-Valine] (Oleoyl-AAPV-OH) | 46 | 51 | act as elastase inhibitors |  |  |  |
